Measurements from patent US20250114460A1, “NOVEL PLK1 DEGRADATION INDUCING COMPOUND” (UPPTHERA, INC., priority 2021, published 2025).

target: T1, PLK1 (Homo sapiens, UniProt P53350); assay: Luciferase assay for PLK1 in HeLa LgBit (Plk1-HiBit KI) cell line; assay type: cell-based; conditions: 300 nM compound, luminescence after 9 hours
T1 construct: endogenous in cells; host or cells: HeLa LgBit (Plk1-HiBit KI): HeLa stably expressing LgBit, with a CRISPR/Cas9 knock-in of HiBit at the endogenous PLK1 locus
T1 sequence (P53350 whole entry): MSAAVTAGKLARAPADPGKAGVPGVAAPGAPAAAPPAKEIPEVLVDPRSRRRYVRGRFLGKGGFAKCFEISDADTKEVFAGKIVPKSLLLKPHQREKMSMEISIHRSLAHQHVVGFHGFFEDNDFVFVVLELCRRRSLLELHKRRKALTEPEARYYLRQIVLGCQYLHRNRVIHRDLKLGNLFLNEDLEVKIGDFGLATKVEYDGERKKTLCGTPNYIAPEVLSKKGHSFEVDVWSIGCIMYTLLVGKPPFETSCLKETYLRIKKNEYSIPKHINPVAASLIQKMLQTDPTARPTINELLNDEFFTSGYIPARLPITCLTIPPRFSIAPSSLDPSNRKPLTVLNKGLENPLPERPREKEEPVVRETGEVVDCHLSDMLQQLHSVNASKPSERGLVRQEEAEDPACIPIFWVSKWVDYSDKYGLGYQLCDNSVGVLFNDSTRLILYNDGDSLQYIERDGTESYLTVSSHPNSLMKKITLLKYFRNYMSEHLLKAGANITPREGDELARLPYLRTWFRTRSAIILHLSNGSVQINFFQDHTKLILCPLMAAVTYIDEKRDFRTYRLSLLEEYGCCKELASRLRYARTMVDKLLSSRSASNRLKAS
Experimental: 2. Luciferase Assay for PLK1
(1) Preparation and Culture of HeLa LgBit (Plk1-HiBit KI) Cell Line
A HeLa cell line in which the LgBit vector was transfected and expressed stably was prepared. Then, after constructing gRNA and donor to express the HiBit amino acid sequence behind the C-terminal of the Plk1 gene, which was inherent in the cell, it was inserted into the cell together with a vector capable of expressing CRISPR/Cas9. Only the cells in which the insertion was completed and knock-in had progressed were selected, sub-cultured and used.
(2) Treatment of Compounds of the Present Invention and Method of Luciferase Assay
In the case of HeLa LgBit (Plk1-HiBit KI), the compounds were treated after being released after thymidine block, and the process was as follows. Thymidine (Sigma-Aldrich Cat. No. T9250-5G) was completely dissolved in DW and used in the experiment. For thymidine block, the products were treated with 2 mM of thymidine and then incubated for 24 hours. For release and chemical treatment, the medium was suctioned and washed with 1×PBS. TrypLE™ was added and incubated in 37° C. CO2 incubator for 5 min. Cells neutralized by adding complete media were counted through a counter. For each well of a 96-well culture plate (SPL), 3.3×10^4 cells and a total medium volume of 150 μL were seeded and incubated in a CO2 incubator.
Each cell line was incubated in a CO2 incubator for 18 hours, and Endurazine was added to each well to make up 4% of the total volume. After adding the compound of the present invention in a 96-well white plate (SPL) to a concentration of 300 nM, the wavelength of the plate reader (BMG Labtech, CLARIOstar Plus) was set to […], and then the luminescence was tracked in real time.
In Table 2, Activity represents the ratio of the luminescense value of each Exemplary Compound treatment group to DMSO treatment group (+++: <0.3, ++<0.6, +<0.7).

Row | SMILES | Activity: ratio of the luminescense value of each Exemplary Compound treatment group to DMSO treatment group
1 | COc1cc(C(=O)NC2CCN(CC3CCN(c4cccc5c4C(=O)N(C4CCC(=O)NC4=O)C5=O)C3)CC2)ccc1Nc1ncc2c(n1)N(C1CCCC1)CC(F)(F)C(=O)N2C (centres unmarked) [Compound 46, 4-((9-cyclopentyl-7,7-difluoro-5-methyl-6-oxo-6,7,8,9-tetrahydro-5H-pyrimido[4,5-b][1,4]diazepin-2-yl)amino)-N-(1-((1-(2-(2,6-dioxopiperidin-3-yl)-1,3-dioxoisoindolin-4-yl)pyrrolidin-3-yl)methyl)piperidin-4-yl)-3-methoxybenzamide] | ++ (++<0.6)
2 | COc1cc(C(=O)NC2CCN(C[C@@H]3CCN(c4cccc5c4C(=O)N(C4CCC(=O)NC4=O)C5=O)C3)CC2)ccc1Nc1ncc2c(n1)N(C1CCCC1)CC(F)(F)C(=O)N2C (stereo partly drawn) [Compound 47, 4-((9-cyclopentyl-7,7-difluoro-5-methyl-6-oxo-6,7,8,9-tetrahydro-5H-pyrimido[4,5-b][1,4]diazepin-2-yl)amino)-N-(1-(((3S)-1-(2-(2,6-dioxopiperidin-3-yl)-1,3-dioxoisoindolin-4-yl)pyrrolidin-3-yl)methyl)piperidin-4-yl)-3-methoxybenzamide] | ++ (++<0.6)
3 | COc1cc(C(=O)NC2CCN(C[C@@H]3CCN(c4ccc5c(c4)C(=O)N(C4CCC(=O)NC4=O)C5=O)C3)CC2)ccc1Nc1ncc2c(n1)N(C1CCCC1)CC(F)(F)C(=O)N2C (stereo partly drawn) [Compound 48, 4-((9-cyclopentyl-7,7-difluoro-5-methyl-6-oxo-6,7,8,9-tetrahydro-5H-pyrimido[4,5-b][1,4]diazepin-2-yl)amino)-N-(1-(((3S)-1-(2-(2,6-dioxopiperidin-3-yl)-1,3-dioxoisoindolin-5-yl)pyrrolidin-3-yl)methyl)piperidin-4-yl)-3-methoxybenzamide] | + (+<0.7)
4 | COc1cc(C(=O)NC2CCN(CCCC3CCCN(c4cccc5c4C(=O)N(C4CCC(=O)NC4=O)C5=O)C3)CC2)ccc1Nc1ncc2c(n1)N(C1CCCC1)CC(F)(F)C(=O)N2C (centres unmarked) [Compound 57, 4-((9-cyclopentyl-7,7-difluoro-5-methyl-6-oxo-6,7,8,9-tetrahydro-5H-pyrimido[4,5-b][1,4]diazepin-2-yl)amino)-N-(1-(3-(1-(2-(2,6-dioxopiperidin-3-yl)-1,3-dioxoisoindolin-4-yl)piperidin-3-yl)propyl)piperidin-4-yl)-3-methoxybenzamide] | + (+<0.7)
5 | COc1cc(C(=O)NC2CCN(C(=O)CCN3CCN(c4ccc5c(c4)CN(C4CCC(=O)NC4=O)C5=O)CC3)CC2)c(F)cc1Nc1ncc2c(n1)N(C1CCCC1)CC(F)(F)C(=O)N2C (centres unmarked) [Compound 61, 4-((9-cyclopentyl-7,7-difluoro-5-methyl-6-oxo-6,7,8,9-tetrahydro-5H-pyrimido[4,5-b][1,4]diazepin-2-yl)amino)-N-(1-(3-(4-(2-(2,6-dioxopiperidin-3-yl)-1-oxoisoindolin-5-yl)piperazin-1-yl)propanoyl)piperidin-4-yl)-2-fluoro-5-methoxybenzamide] | ++ (++<0.6)
6 | COc1cc(C(=O)NC2CCN(C(=O)CCCN3CCN(c4cccc5c4C(=O)N(C4CCC(=O)NC4=O)C5=O)CC3)CC2)ccc1Nc1ncc2c(n1)N(C1CCCC1)CC(F)(F)C(=O)N2C (centres unmarked) [Compound 64, 4-((9-cyclopentyl-7,7-difluoro-5-methyl-6-oxo-6,7,8,9-tetrahydro-5H-pyrimido[4,5-b][1,4]diazepin-2-yl)amino)-N-(1-(4-(4-(2-(2,6-dioxopiperidin-3-yl)-1,3-dioxoisoindolin-4-yl)piperazin-1-yl)butanoyl)piperidin-4-yl)-3-methoxybenzamide] | ++ (++<0.6)
7 | COc1cc(C(=O)NC2CCN(C(=O)CCCCN3CCN(c4cccc5c4C(=O)N(C4CCC(=O)NC4=O)C5=O)CC3)CC2)ccc1Nc1ncc2c(n1)N(C1CCCC1)CC(F)(F)C(=O)N2C (centres unmarked) [Compound 65, 4-((9-cyclopentyl-7,7-difluoro-5-methyl-6-oxo-6,7,8,9-tetrahydro-5H-pyrimido[4,5-b][1,4]diazepin-2-yl)amino)-N-(1-(5-(4-(2-(2,6-dioxopiperidin-3-yl)-1,3-dioxoisoindolin-4-yl)piperazin-1-yl)pentanoyl)piperidin-4-yl)-3-methoxybenzamide] | ++ (++<0.6)
8 | COc1cc(C(=O)NC2CCN(C(=O)CCN3CCN(c4cccc5c4C(=O)N(C4CCC(=O)NC4=O)C5=O)CC3)CC2)ccc1Nc1ncc2c(n1)N(C1CC1)CC(F)(F)C(=O)N2C (centres unmarked) [Compound 67, 4-((9-cyclopropyl-7,7-difluoro-5-methyl-6-oxo-6,7,8,9-tetrahydro-5H-pyrimido[4,5-b][1,4]diazepin-2-yl)amino)-N-(1-(3-(4-(2-(2,6-dioxopiperidin-3-yl)-1,3-dioxoisoindolin-4-yl)piperazin-1-yl)propanoyl)piperidin-4-yl)-3-methoxybenzamide] | ++ (++<0.6)
9 | CN1C(=O)C(F)(F)CN(C2CCCC2)c2nc(Nc3ccc(C(=O)NC4CCN(C(=O)CCN5CCN(c6cccc7c6C(=O)N(C6CCC(=O)NC6=O)C7=O)CC5)CC4)cc3OCCO)ncc21 (centres unmarked) [Compound 73, 4-((9-cyclopentyl-7,7-difluoro-5-methyl-6-oxo-6,7,8,9-tetrahydro-5H-pyrimido[4,5-b][1,4]diazepin-2-yl)amino)-N-(1-(3-(4-(2-(2,6-dioxopiperidin-3-yl)-1,3-dioxoisoindolin-4-yl)piperazin-1-yl)propanoyl)piperidin-4-yl)-3-(2-hydroxyethoxy)benzamide] | ++ (++<0.6)
10 | CN1C(=O)C(F)(F)CN(C2CCCC2)c2nc(Nc3ccc(C(=O)NC4CCN(C(=O)CCN5CCN(c6cccc7c6C(=O)N(C6CCC(=O)NC6=O)C7=O)CC5)CC4)cc3C(F)(F)F)ncc21 (centres unmarked) [Compound 75, 4-((9-cyclopentyl-7,7-difluoro-5-methyl-6-oxo-6,7,8,9-tetrahydro-5H-pyrimido[4,5-b][1,4]diazepin-2-yl)amino)-N-(1-(3-(4-(2-(2,6-dioxopiperidin-3-yl)-1,3-dioxoisoindolin-4-yl)piperazin-1-yl)propanoyl)piperidin-4-yl)-3-(trifluoromethyl)benzamide] | ++ (++<0.6)
11 | COc1cc(C(=O)NC2CCN(C(=O)COC3CN(c4cccc5c4C(=O)N(C4CCC(=O)NC4=O)C5=O)C3)CC2)ccc1Nc1ncc2c(n1)N(C1CCCC1)CC(F)(F)C(=O)N2C (centres unmarked) [Compound 80, 4-((9-cyclopentyl-7,7-difluoro-5-methyl-6-oxo-6,7,8,9-tetrahydro-5H-pyrimido[4,5-b][1,4]diazepin-2-yl)amino)-N-(1-(2-((1-(2-(2,6-dioxopiperidin-3-yl)-1,3-dioxoisoindolin-4-yl)azetidin-3-yl)oxy)acetyl)piperidin-4-yl)-3-methoxybenzamide] | ++ (++<0.6)
12 | COc1cc(C(=O)N[C@H]2CCN(C(=O)CCN3CCN(c4ccc5c(c4)CN(C4CCC(=O)NC4=O)C5=O)CC3)C2)c(F)cc1Nc1ncc2c(n1)N(C1CCCC1)CC(F)(F)C(=O)N2C (stereo partly drawn) [Compound 84, 4-((9-cyclopentyl-7,7-difluoro-5-methyl-6-oxo-6,7,8,9-tetrahydro-5H-pyrimido[4,5-b][1,4]diazepin-2-yl)amino)-N-((3S)-1-(3-(4-(2-(2,6-dioxopiperidin-3-yl)-1-oxoisoindolin-5-yl)piperazin-1-yl)propanoyl)pyrrolidin-3-yl)-2-fluoro-5-methoxybenzamide] | ++ (++<0.6)
13 | COc1cc(C(=O)N2CCN(CCCN3CCN(c4cccc5c4C(=O)N(C4CCC(=O)NC4=O)C5=O)CC3)CC2)ccc1Nc1ncc2c(n1)N(C1CCCC1)CC(F)(F)C(=O)N2C (centres unmarked) [Compound 87, 4-(4-(3-(4-(4-((9-cyclopentyl-7,7-difluoro-5-methyl-6-oxo-6,7,8,9-tetrahydro-5H-pyrimido[4,5-b][1,4]diazepin-2-yl)amino)-3-methoxybenzoyl)piperazin-1-yl)propyl)piperazin-1-yl)-2-(2,6-dioxopiperidin-3-yl)isoindoline-1,3-dione] | ++ (++<0.6)
14 | COc1cc(C(=O)N2CCN(CCCCN3CCN(c4cccc5c4C(=O)N(C4CCC(=O)NC4=O)C5=O)CC3)CC2)ccc1Nc1ncc2c(n1)N(C1CCCC1)CC(F)(F)C(=O)N2C (centres unmarked) [Compound 88, 4-(4-(4-(4-(4-((9-cyclopentyl-7,7-difluoro-5-methyl-6-oxo-6,7,8,9-tetrahydro-5H-pyrimido[4,5-b][1,4]diazepin-2-yl)amino)-3-methoxybenzoyl)piperazin-1-yl)butyl)piperazin-1-yl)-2-(2,6-dioxopiperidin-3-yl)isoindoline-1,3-dione] | ++ (++<0.6)
